Earlier results on one molecule are cited in patent publication US10328076B2, “Pharmaceutical composition comprising a triazole antifungal agent and method for preparation thereof” (PHARMATHEN S.A., priority 2014, dated 2019).

Like-named read-outs stand apart in the source and are kept apart here.

`C[C@@H](c1ncncc1F)[C@](O)(Cn1cncn1)c1ccc(F)cc1F` [Voriconazole, (2R,3S)-2-(2,4-difluorophenyl)-3-(5-fluoropyrimidin-4-yl)-1-(1H-1,2,4-triazol-1-yl)butan-2-ol]: the Solubility result runs as follows: (in acetone) “freely soluble”; (in dichlorometane) “freely soluble”; (in water) “very slightly soluble”.
